In general, IC50 refers to the point on the concentration scale where inhibition reaches its midpoint.

Here are results for two compounds from paper PMC4767442 (Oncotarget, 2015).

Data set [1] concerns MCF-7 human breast adenocarcinoma cell line. Put plainly: MTT proliferation/viability assay, MCF-7. In kind it is cell-based. The conditions noted are these: MCF7, 72 h/37°C, mean ± S.D. As for the experimental part:
(§1) The MCF-7 human breast adenocarcinoma cell line was purchased from the European Collection of Cell Cultures (U.K.). The HL-60 human promyelocytic leukemia cell line, HCT116 human colorectal carcinoma cell line, H9c2 rat heart-derived myoblast cell line and 3T3 mouse embryo fibroblast line, were obtained from the American Type Culture Collection (VA, U.S.A.). Cells were cultured in Dulbecco's modified Eagle's medium (DMEM, Lonza, Switzerland) with or without (for MCF-7 cells only) phenol red, supplemented with 10% heat-inactivated fetal bovine serum (FBS; Lonza, Switzerland), 1% penicillin/streptomycin solution (Lonza, Switzerland) and 10 mM HEPES buffer (pH 7.0-7.6; Sigma-Aldrich, Germany). The HL-60 cell line was maintained in RPMI medium (Sigma-Aldrich, Germany) supplemented with 10% heat-inactivated FBS and 1% penicillin/streptomycin solution. All cell lines were cultured in 75 cm^2 tissue culture flasks (Switzerland) at 37°C in a humidified atmosphere of 5% CO2. Sub-confluent cells or, in the case of HL-60 cells, a cell suspension, were sub-cultured every 3-4 days.
(§2) Cells were seeded in 96-well plates for 24 h/37°C at a density of 5,000 (MCF-7), 10,000 (HL-60), 2,000 (HCT116) and 10,000 (3T3 and H9c2) cells/well. For 3T3 and H9c2 cells, the medium was changed to serum- and pyruvate-free DMEM 24 h prior to the experiments. Anti-proliferative and cytotoxicity effects of the compounds were studied at different concentrations after incubations for 72 h/37°C. Viabilities of cells were determined using MTT assays (Sigma-Aldrich, Germany) according to the manufacturer's instructions on a Tecan Infinite 200M plate reader (Tecan, Austria). The proliferation/viability of treated groups was expressed as a percentage of the untreated controls (100%).

For data set [2], the system named is HCT116 human colorectal carcinoma cell line. Put plainly: MTT proliferation/viability assay, HCT116. The conditions noted are these: HCT-116, 72 h/37°C, mean ± S.D. In kind it is cell-based. The protocol:
as §1, §2

The subject of data set [3] is H9c2 rat heart-derived myoblast cell line. Put plainly: MTT proliferation/viability assay, H9c2. The class given is cell-based. The conditions noted are these: 72 h/37°C, mean ± S.D., serum- and pyruvate-free DMEM. The protocol:
as §1, §2

For data set [4], the system named is 3T3 mouse embryo fibroblast line. Put plainly: MTT proliferation/viability assay, 3T3. The class given is cell-based. Particulars: 72 h/37°C, mean ± S.D., serum- and pyruvate-free DMEM. As for the experimental part: as §1, §2
The test system of data set [5] is cancer cell lines (HL-60, MCF-7 and HCT116). Put plainly: MTT assay, cancer cell lines as a group. The class given is cell-based. The conditions noted are these: Homo sapiens, HL-60, MCF-7, HCT116, 72 h/37°C, read-out: IC50 against cancer cells (range over cell lines). The protocol:
as §1, §2
A general note: Formazan colour is commonly taken as a measure of viable cells.

Data set [6] relates to MCF-7 cells. Put plainly: 59Fe mobilization from cells prelabeled with 59Fe-transferrin. In kind it is cell-based, human. Particulars: MCF-7 prelabeled with 59Fe-transferrin, compounds 25 μmol·L^−1, 3 h/37°C. As for the experimental part: Iron chelation efficiency of the compounds at a concentration of 10 μmol·L^−1 was determined via 3 methods: (1) the calcein assay; (2) the ability of the ligands to induce ^59Fe mobilization from cells prelabeled with ^59Fe-transferrin; and (3) the efficacy of these agents to inhibit the uptake of ^59Fe from ^59Fe-transferrin [22, 38–40].
The fluorimetric calcein-AM assay was performed by established methods, as described previously. The Fe chelation efficiency of the metabolites in cells was expressed as a percentage of that of the parent chelator, Dp44mT or DpC (100%). For studies assessing the ability of these agents to induce ^59Fe mobilization and inhibit ^59Fe uptake from ^59Fe-transferrin by cells, human transferrin (Sigma-Aldrich, Germany) was labeled with ^59Fe (PerkinElmer, MA, USA) to generate ^59Fe-transferrin at a final specific activity of 500 pCi/pmol Fe, as previously described. The unbound ^59Fe was removed by exhaustive vacuum dialysis against a large excess of 0.15 M NaCl buffered to pH 7.4 with 1.4% NaHCO3 by standard methods.
To examine the ability of the studied substances to mobilize ^59Fe from MCF-7 cells or inhibit ^59Fe uptake from ^59Fe-transferrin, established techniques were utilized. For ^59Fe mobilization studies, cells were preincubated with ^59Fe-transferrin (0.75 μmol·L^−1) for 3 h/37°C, washed 4 times at 4°C on ice, and then reincubated with control medium or control medium containing the compounds (25 μmol·L^−1) for 3 h/37°C. The release of ^59Fe from the cells into the overlying medium was then examined by collecting both the cells and overlying medium and assessing ^59Fe levels using a γ-counter. For studies examining the ability of the agents to inhibit ^59Fe uptake from ^59Fe-transferrin, cells were incubated for 3 h/37°C with ^59Fe-transferrin (0.75 μmol·L^−1) in the presence or absence of the agents (25 μmol·L^−1), and then washed 4 times at 4°C on ice. The internalization of ^59Fe by cells was then assessed by incubation for 30 min/4°C with the general protease, Pronase (1 mg/mL), utilizing standard techniques. The amount of internalized ^59Fe in the presence of the agents was expressed as a percentage of ^59Fe internalized by control cells incubated in the presence of control media alone.

Data set [7] in a line: Post-preparative stability in the autosampler at 10°C. The class given is physicochemical. Particulars: for decomposition on storage (in words): 24 h storage in the autosampler at 10°C; for Post-preparative stability: autosampler 10°C, 24 h. As for the experimental part: The UHPLC-MS/MS methods for quantitative assays were validated with respect to selectivity, linearity, precision, accuracy, stability, recovery, matrix effects and dilution integrity (see […]
Supplementary Table 1-3). […]
Stability was assessed at low, medium and high concentration levels. Long -term stability was assessed for plasma samples at -80°C over a period of 7 days (three aliquots per level; Supplementary Table 3). […]

Details of data set [8]: method as in earlier work. Particulars: chronically repeated dosing at high non-optimal levels (Dp44mT, mice, ref 1); DpC at markedly higher doses; cited from earlier work.
[9] abbreviates: high concentration level (2.105-3.115 µmol·L-1).
[10] abbreviates: low concentration level (0.035-0.156 µmol·L-1).
Setting [11] is: medium concentration level (0.702-1.558 µmol·L-1).

With `CN(C)C(=S)NN=C(c1ccccn1)c1ccccn1` [Dp44mT, di(2-pyridyl)ketone 4,4-dimethyl-3-thiosemicarbazone], the IC50 is 9 ± 2 nM in data set [1]; 6 ± 1 nM in data set [2]; 124 ± 49 nM in data set [3]; 157 ± 51 nM in data set [4]; 2 to 9 nM in data set [5]. The “59Fe mobilization, % of cellular 59Fe” value in data set [6] is given as 51%. Also, the “decomposition on storage (in words)” value in data set [7] is given as “No significant decomposition”. Moreover, the Post-preparative stability in data set [7] (setting [9]) is 98.90%; in data set [7] (setting [10]), 93.70%; in data set [7] (setting [11]), 95.92%. Besides, in data set [8], the cardiac fibrosis result is reported as “cardiac fibrosis was demonstrated”.

Regarding `CN(C(=S)NN=C(c1ccccn1)c1ccccn1)C1CCCCC1` [DpC, di(2-pyridyl)ketone 4-cyclohexyl-4-methyl-3-thiosemicarbazone], the IC50 in data set [1] was 3 ± 1 nM; in data set [2], 5 ± 1 nM; in data set [3], 85 ± 13 nM; in data set [4] it was 412 ± 177 nM; in data set [5], 3 to 5 nM. Moreover, in data set [6], the “59Fe mobilization, % of cellular 59Fe” value amounted to 44%. In addition, the “decomposition on storage (in words)” value in data set [7] was “No significant decomposition”. In addition, the Post-preparative stability is given as 107.34% in data set [7] (setting [9]), 97.48% in data set [7] (setting [10]) and 95.68% in data set [7] (setting [11]). Further, the cardiac fibrosis result in data set [8] is reported as “does not induce cardiac fibrosis”.
